Experimental data published in PubChem BioAssay AID1845199 (Molecular Pharmacology Branch, DTP, NCI, 2023).

Test system: 556581-035-R-J1 tumor spheroid viability, % test/control
Assay: Anticancer human tumor 556581-035-R-J1 patient-derived ovarian carcinoma cell line growth inhibition
Settings: spheroids with HUVEC and MSC; for IC50: curve of first compound; for viability, T/C: stronger effect = lower value
In short: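 Complex spheroids of malignant cells with endothelial cells and mesenchymal stem cells; agents alone or combined, from near clinical Cmax (or 10 microM if unknown) down in half-log steps, 0.25% DMSO final.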
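Further: spheroids exposed to compounds for 7 days before viability read.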

CNCc1ccc(-c2cc(-c3nc(-c4ccc(S(=O)(=O)C(C)C)cc4)cnc3N)on2)cc1 + CC[C@@]1(O)C(=O)OCc2c1cc1n(c2=O)Cc2cc3c(CN(C)C)c(O)ccc3nc2-1 showed an IC50 (second compound 0.003 µM) of 1380 nM, an IC50 (second compound 0.00949 µM) of 1170 nM and an IC50 (second compound 0.03 µM) of 854 nM. For the same molecule, the IC50 (second compound 0.0949 µM) was 270 nM, the IC50 (second compound 0.3 µM) was < 9.49 nM and the viability, T/C (second compound 0.003 µM, first compound 0.00949 µM) was 101%. The viability, T/C (second compound 0.003 µM, first compound 0.03 µM) was 94.6%, the viability, T/C (second compound 0.003 µM, first compound 0.0949 µM) was 100% and the viability, T/C (second compound 0.003 µM, first compound 0.3 µM) was 104%. It also gave a viability, T/C (second compound 0.003 µM, first compound 0.949 µM) of 67.6%, a viability, T/C (second compound 0.003 µM, first compound 3 µM) of 13.7% and a viability, T/C (second compound 0.00949 µM, first compound 0.00949 µM) of 88.7%. It also gave a viability, T/C (second compound 0.00949 µM, first compound 0.03 µM) of 90.5%, a viability, T/C (second compound 0.00949 µM, first compound 0.0949 µM) of 87.1% and a viability, T/C (second compound 0.00949 µM, first compound 0.3 µM) of 93.6%. The viability, T/C (second compound 0.00949 µM, first compound 0.949 µM) was 59%, the viability, T/C (second compound 0.00949 µM, first compound 3 µM) was 9.61% and the viability, T/C (second compound 0.03 µM, first compound 0.00949 µM) was 83.7%. It also gave a viability, T/C (second compound 0.03 µM, first compound 0.03 µM) of 84.7%, a viability, T/C (second compound 0.03 µM, first compound 0.0949 µM) of 92.4% and a viability, T/C (second compound 0.03 µM, first compound 0.3 µM) of 75%. The viability, T/C (second compound 0.03 µM, first compound 0.949 µM) was 47.8%, the viability, T/C (second compound 0.03 µM, first compound 3 µM) was 9.43% and the viability, T/C (second compound 0.0949 µM, first compound 0.00949 µM) was 64.4%. The viability, T/C (second compound 0.0949 µM, first compound 0.03 µM) was 67%, the viability, T/C (second compound 0.0949 µM, first compound 0.0949 µM) was 59% and the viability, T/C (second compound 0.0949 µM, first compound 0.3 µM) was 47.6%. For the same molecule, the viability, T/C (second compound 0.0949 µM, first compound 0.949 µM) was 31.3%, the viability, T/C (second compound 0.0949 µM, first compound 3 µM) was 1.58% and the viability, T/C (second compound 0.3 µM, first compound 0.00949 µM) was 16.8%. It also gave a viability, T/C (second compound 0.3 µM, first compound 0.03 µM) of 15.9%, a viability, T/C (second compound 0.3 µM, first compound 0.0949 µM) of 14.3% and a viability, T/C (second compound 0.3 µM, first compound 0.3 µM) of 11.8%. The viability, T/C (second compound 0.3 µM, first compound 0.949 µM) was 8.45% and the viability, T/C (second compound 0.3 µM, first compound 3 µM) was 0.85%.

For [2H]c1nc(C)nc([2H])c1-c1cc(NC[C@@H](C)c2cccc3c(C(=O)NC)ccnc23)ncn1 + COc1cc2c(cc1O)CCNC21CSC2c3c(OC(C)=O)c(C)c4c(c3C(COC1=O)N1C(O)C3Cc5cc(C)c(OC)c(O)c5C(C21)N3C)OCO4, the IC50 (second compound 30 pM) was > 10000 nM, the IC50 (second compound 94.9 pM) was > 10000 nM and the IC50 (second compound 0.0003 µM) was > 10000 nM. The IC50 (second compound 0.000949 µM) was < 31.6 nM, the IC50 (second compound 0.003 µM) was < 31.6 nM and the viability, T/C (second compound 30 pM, first compound 0.0316 µM) was 105%. The viability, T/C (second compound 30 pM, first compound 0.1 µM) was 119%, the viability, T/C (second compound 30 pM, first compound 0.316 µM) was 116% and the viability, T/C (second compound 30 pM, first compound 1 µM) was 120%. It also gave a viability, T/C (second compound 30 pM, first compound 3.16 µM) of 110%, a viability, T/C (second compound 30 pM, first compound 10 µM) of 116% and a viability, T/C (second compound 94.9 pM, first compound 0.0316 µM) of 113%. It also gave a viability, T/C (second compound 94.9 pM, first compound 0.1 µM) of 118%, a viability, T/C (second compound 94.9 pM, first compound 0.316 µM) of 108% and a viability, T/C (second compound 94.9 pM, first compound 1 µM) of 113%. The viability, T/C (second compound 94.9 pM, first compound 3.16 µM) was 118%, the viability, T/C (second compound 94.9 pM, first compound 10 µM) was 125% and the viability, T/C (second compound 0.0003 µM, first compound 0.0316 µM) was 101%. It also gave a viability, T/C (second compound 0.0003 µM, first compound 0.1 µM) of 110%, a viability, T/C (second compound 0.0003 µM, first compound 0.316 µM) of 102% and a viability, T/C (second compound 0.0003 µM, first compound 1 µM) of 104%. It also gave a viability, T/C (second compound 0.0003 µM, first compound 3.16 µM) of 108%, a viability, T/C (second compound 0.0003 µM, first compound 10 µM) of 109% and a viability, T/C (second compound 0.000949 µM, first compound 0.0316 µM) of 40.9%. For the same molecule, the viability, T/C (second compound 0.000949 µM, first compound 0.1 µM) was 46.4%, the viability, T/C (second compound 0.000949 µM, first compound 0.316 µM) was 42.9% and the viability, T/C (second compound 0.000949 µM, first compound 1 µM) was 46.3%. It also gave a viability, T/C (second compound 0.000949 µM, first compound 3.16 µM) of 33.9%, a viability, T/C (second compound 0.000949 µM, first compound 10 µM) of 31.1% and a viability, T/C (second compound 0.003 µM, first compound 0.0316 µM) of 1.6%. For the same molecule, the viability, T/C (second compound 0.003 µM, first compound 0.1 µM) was 0.73%, the viability, T/C (second compound 0.003 µM, first compound 0.316 µM) was 0.75% and the viability, T/C (second compound 0.003 µM, first compound 1 µM) was 0.97%. It also gave a viability, T/C (second compound 0.003 µM, first compound 3.16 µM) of 1.05% and a viability, T/C (second compound 0.003 µM, first compound 10 µM) of 1.32%.
